The subject of assay [1] is Staphylococcus aureus. The assay can be described thus: Antibacterial activity against Staphylococcus aureus up to 200 ug/ml by agar well diffusion method. In kind it is functional, organism-based.
Assay [2] deals with Salmonella typhimurium. In words: Antibacterial activity against Salmonella typhimurium up to 200 ug/ml by agar well diffusion method. The format is functional, organism-based. As to conditions: Salmonella enterica subsp. enterica serovar Typhimurium.
Assay [3] deals with Escherichia coli. The assay can be described thus: Antibacterial activity against Escherichia coli up to 200 ug/ml by agar well diffusion method. In kind it is functional, organism-based.
Assay [4] deals with THP-1. The assay can be described thus: Antiinflammatory activity in human PMA-stimulated THP1 cells assessed as inhibition of LPS-induced IL-6 production at 10 uM treated 30 mins before LPS challenge measured after 24 hrs by ELISA. The format is functional.
For assay [5], the system named is Fusarium solani. The assay can be described thus: Antifungal activity against Fusarium solani up to 200 ug/ml by agar well diffusion method. The format is functional, organism-based.
Assay [6] relates to Aspergillus niger. The assay can be described thus: Antifungal activity against Aspergillus niger up to 200 ug/ml by agar well diffusion method. In kind it is functional, organism-based.
The subject of assay [7] is Aspergillus flavus. In words: Antifungal activity against Aspergillus flavus up to 200 ug/ml by agar well diffusion method. The format is functional, organism-based.
For assay [8], the system named is Candida albicans. The assay can be described thus: Antifungal activity against Candida albicans up to 200 ug/ml by agar well diffusion method. The format is functional, organism-based.
Assay [9] has as its system THP-1. The assay can be described thus: Antiinflammatory activity in human PMA-stimulated THP1 cells assessed as inhibition of LPS-induced TNFalpha production at 10 uM treated 30 mins before LPS challenge measured after 24 hrs by ELISA. In kind it is functional.
Assay [10] deals with Bacillus subtilis. The assay can be described thus: Antibacterial activity against Bacillus subtilis up to 200 ug/ml by agar well diffusion method. The format is functional, organism-based.
Assay [11] relates to Staphylococcus aureus. In words: Antibacterial activity against Staphylococcus aureus by agar well diffusion method. The format is functional.
Assay [12] concerns Bacillus subtilis. In words: Antibacterial activity against Bacillus subtilis by agar well diffusion method. The format is functional.
The test system of assay [13] is Escherichia coli. The assay can be described thus: Antibacterial activity against Escherichia coli by agar well diffusion method. In kind it is functional.
In assay [14] the test system is Salmonella typhimurium. In words: Antibacterial activity against Salmonella typhimurium by agar well diffusion method. The format is functional, Salmonella enterica subsp. enterica serovar Typhimurium. To be noted: Salmonella enterica.
For assay [15], the system named is Aspergillus niger. In words: Antifungal activity against Aspergillus niger by agar well diffusion method. The format is functional.
Assay [16] has as its system Aspergillus flavus. In words: Antifungal activity against Aspergillus flavus by agar well diffusion method. The format is functional.
Assay [17] concerns Candida albicans. The assay can be described thus: Antifungal activity against Candida albicans by agar well diffusion method. The format is functional.
Assay [18] relates to THP-1. The assay can be described thus: Antiinflammatory activity in human PMA-stimulated THP1 cells assessed as inhibition of LPS-induced IL-6 production at 1 uM treated 30 mins before LPS challenge measured after 24 hrs by ELISA. In kind it is functional.
Assay [19] concerns THP-1. The assay can be described thus: Antiinflammatory activity in human PMA-stimulated THP1 cells assessed as inhibition of LPS-induced TNFalpha production at 1 uM treated 30 mins before LPS challenge measured after 24 hrs by ELISA. In kind it is functional.
Assay [20] has as its system Fusarium solani. In words: Antifungal activity against Fusarium solani by agar well diffusion method. In kind it is functional.

≈ marks a conversion by molar mass, not a printed value. Calls of active or inactive are those of the source. No cut-off for these calls is given here.

On to `Cc1ccccc1NC(=S)Nc1ccc(-c2cc(Nc3cccc(C(F)(F)F)c3)ncn2)cc1`, for which the result in the assay on Staphylococcus aureus [1], in the assay on Salmonella typhimurium [2], with Escherichia coli [3], in the assay with Fusarium solani [5], in the assay with Aspergillus niger [6] and with Aspergillus flavus [7] was inactive. The result with Candida albicans [8] and in the assay with Bacillus subtilis [10] was inactive. The inhibition at 10 µM in the assay on THP-1 [4] and in the assay with THP-1 [9] was 0% in each case.

As for `O=S(=O)(Nc1ccc(-c2cc(Nc3cccc(C(F)(F)F)c3)ncn2)cc1)c1ccc(OC(F)(F)F)cc1`, the MIC with Staphylococcus aureus [11] came to 15 µg/mL (≈ 27.1 µM); in the assay on Bacillus subtilis [12], 20 µg/mL (≈ 36.1 µM); against Escherichia coli [13] it was 15 µg/mL (≈ 27.1 µM); against Salmonella typhimurium [14] it was 10 µg/mL (≈ 18 µM). In addition, the inhibition at 10 µM in the assay on THP-1 [4] turned out to be 8%; in the assay on THP-1 [9] it was 0%. Moreover, the result with Fusarium solani [5], in the assay on Aspergillus niger [6], in the assay with Aspergillus flavus [7] and in the assay with Candida albicans [8] was inactive.

In the case of `O=[N+]([O-])c1ccc(-c2cc(Cl)ncn2)cc1`, the outcome in the assay with Staphylococcus aureus [1], in the assay on Salmonella typhimurium [2], with Escherichia coli [3], in the assay on Fusarium solani [5] and in the assay with Bacillus subtilis [10] was inactive. The MIC against Aspergillus niger [15], in the assay on Aspergillus flavus [16] and in the assay with Candida albicans [17] was 90 µg/mL (≈ 382 µM) each time. Besides, the inhibition at 10 µM with THP-1 [4] and in the assay with THP-1 [9] was 0% in each case.

For `Cc1cccc(S(=O)(=O)Nc2ccc(-c3cc(Nc4cccc(C(F)(F)F)c4)ncn3)cc2)c1`, the MIC against Staphylococcus aureus [11], in the assay on Escherichia coli [13] and with Salmonella typhimurium [14] was 90 µg/mL (≈ 186 µM) each time. The inhibition at 10 µM came out at 25% in the assay with THP-1 [4] and 14% with THP-1 [9]. The outcome in the assay with Fusarium solani [5], in the assay with Aspergillus niger [6], in the assay with Aspergillus flavus [7], with Candida albicans [8] and in the assay on Bacillus subtilis [10] was inactive.

`C[C@@H]1C[C@H]2[C@@H]3CCC4=CC(=O)C=C[C@]4(C)[C@@]3(F)[C@@H](O)C[C@]2(C)[C@@]1(O)C(=O)CO` [DEXAMETHASONE]: the values for the inhibition at 1 µM with THP-1 [18] and with THP-1 [19] were 86% and 72%, respectively.

Regarding `FC(F)(F)c1cccc(Nc2cc(-c3ccc(NC(=S)Nc4ccc(Cl)cc4)cc3)ncn2)c1`, the MIC in the assay with Staphylococcus aureus [11] was found to be 35 µg/mL (≈ 70 µM); against Bacillus subtilis [12], 35 µg/mL (≈ 70 µM); in the assay with Fusarium solani [20] it was 90 µg/mL (≈ 180 µM); in the assay with Escherichia coli [13], 30 µg/mL (≈ 60 µM); against Salmonella typhimurium [14], 30 µg/mL (≈ 60 µM). For the same compound, the inhibition at 10 µM stood at 28% in the assay with THP-1 [4] and 23% in the assay on THP-1 [9]. The outcome in the assay with Aspergillus niger [6], in the assay with Aspergillus flavus [7] and in the assay with Candida albicans [8] was inactive.

Regarding `O=[N+]([O-])c1ccc(-c2cc(Nc3cccc(C(F)(F)F)c3)ncn2)cc1`, the result in the assay on Staphylococcus aureus [1], in the assay with Salmonella typhimurium [2], in the assay with Escherichia coli [3], with Fusarium solani [5], with Aspergillus niger [6] and in the assay on Aspergillus flavus [7] was inactive. Besides, the outcome with Candida albicans [8] and with Bacillus subtilis [10] was inactive. Moreover, the inhibition at 10 µM in the assay on THP-1 [4] and in the assay with THP-1 [9] was 0% in each case.

For `CC1(C)OB(c2ccc([N+](=O)[O-])cc2)OC1(C)C`, the result in the assay with Staphylococcus aureus [1], in the assay with Salmonella typhimurium [2], in the assay with Escherichia coli [3], in the assay with Fusarium solani [5], with Aspergillus niger [6] and in the assay on Aspergillus flavus [7] was inactive. For the same compound, the result in the assay on Bacillus subtilis [10] was inactive. Further, the inhibition at 10 µM in the assay on THP-1 [4] and in the assay with THP-1 [9] was 0% in each case. For the same compound, it took 90 µg/mL (≈ 361 µM) to inhibit growth against Candida albicans [17] (MIC).

As to `CC(C)c1ccc(NC(=O)Nc2ccc(-c3cc(Nc4cccc(C(F)(F)F)c4)ncn3)cc2)cc1`, the MIC against Staphylococcus aureus [11] is 25 µg/mL (≈ 50.9 µM); against Bacillus subtilis [12], 40 µg/mL (≈ 81.4 µM); in the assay on Escherichia coli [13], 20 µg/mL (≈ 40.7 µM); in the assay with Salmonella typhimurium [14], 40 µg/mL (≈ 81.4 µM). Further, the inhibition at 10 µM worked out at 90% in the assay with THP-1 [4] and 71% with THP-1 [9]. The result in the assay on Fusarium solani [5], with Aspergillus niger [6], with Aspergillus flavus [7] and in the assay on Candida albicans [8] was inactive.

The values above are taken from ChEMBL document CHEMBL2021896, “A novel pyrimidine derivatives with aryl urea, thiourea and sulfonamide moieties: synthesis, anti-inflammatory and antimicrobial evaluation” (2012).
